Consider 20 compounds from ChEMBL document CHEMBL1255172, “Discovery and structure-activity relationship of a novel spirocarbamate series of NPY Y5 antagonists” (Bioorg Med Chem Lett, 2010).

Data set [1] concerns the target Cytochrome P450 2C9 (Homo sapiens, UniProt P11712). Briefly: Inhibition of CYP2C9. The class given is ADME.
Data set [2] can be described thus: Clearance in rat blood at 0.5 mg/kg, iv and 1 mg/kg, po. It is filed as ADME, organism-based. The note with it: whole blood.
Data set [3] concerns the target T1, Cytochrome P450 1A2 (Homo sapiens, UniProt P05177).
T1 sequence (P05177 whole entry): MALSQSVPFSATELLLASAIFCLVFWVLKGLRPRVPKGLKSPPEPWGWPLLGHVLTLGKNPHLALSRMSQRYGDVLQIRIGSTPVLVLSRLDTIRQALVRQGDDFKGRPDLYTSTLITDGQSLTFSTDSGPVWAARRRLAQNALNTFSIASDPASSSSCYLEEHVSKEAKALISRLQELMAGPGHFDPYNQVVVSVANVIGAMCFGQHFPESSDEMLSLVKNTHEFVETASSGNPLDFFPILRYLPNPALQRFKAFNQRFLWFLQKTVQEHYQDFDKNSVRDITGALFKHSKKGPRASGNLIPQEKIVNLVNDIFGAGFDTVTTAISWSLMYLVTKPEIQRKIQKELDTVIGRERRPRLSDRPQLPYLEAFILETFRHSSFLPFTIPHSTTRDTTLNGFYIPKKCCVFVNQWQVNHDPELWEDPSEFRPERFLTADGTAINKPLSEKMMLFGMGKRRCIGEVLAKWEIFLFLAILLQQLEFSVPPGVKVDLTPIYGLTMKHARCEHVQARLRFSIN
Nature of the data set: Inhibition of CYP1A2. The class given is ADME.

Data set [4] concerns the target Cytochrome P450 2D6 (Homo sapiens, UniProt P10635). Nature of the data set: Inhibition of CYP2D6. The class given is ADME.
Data set [5] addresses Cytochrome P450 3A4 (Homo sapiens, UniProt P08684). Nature of the data set: Inhibition of CYP3A4. It is filed as ADME.
Data set [6] has as its target Cytochrome P450 2C19 (Homo sapiens, UniProt P33261). Nature of the data set: Inhibition of CYP2C19. The class given is ADME.
Data set [7] deals with T2, Neuropeptide Y receptor type 5 (Homo sapiens, UniProt Q15761).
T2 sequence (Q15761 whole entry): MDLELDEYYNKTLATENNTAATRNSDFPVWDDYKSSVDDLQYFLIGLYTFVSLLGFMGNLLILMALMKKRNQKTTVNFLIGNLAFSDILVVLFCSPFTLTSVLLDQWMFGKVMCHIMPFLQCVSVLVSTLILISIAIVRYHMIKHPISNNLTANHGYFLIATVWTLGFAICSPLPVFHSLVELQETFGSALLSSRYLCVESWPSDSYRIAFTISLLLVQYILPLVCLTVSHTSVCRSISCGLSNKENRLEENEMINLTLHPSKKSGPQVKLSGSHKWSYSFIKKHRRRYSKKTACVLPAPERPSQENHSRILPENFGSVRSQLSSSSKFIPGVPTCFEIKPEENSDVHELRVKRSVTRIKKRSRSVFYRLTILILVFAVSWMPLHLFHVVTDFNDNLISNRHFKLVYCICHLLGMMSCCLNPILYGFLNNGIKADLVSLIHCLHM
Nature of the data set: Antagonist activity at human NPY Y5 receptor. It is filed as functional.

A short description of data set [8]: Protein binding in rat brain assessed as unbound fraction. Conditions: brain tissue. The class given is ADME, tissue-based.

Cytochrome P450 2D6, sequence (P10635 whole entry): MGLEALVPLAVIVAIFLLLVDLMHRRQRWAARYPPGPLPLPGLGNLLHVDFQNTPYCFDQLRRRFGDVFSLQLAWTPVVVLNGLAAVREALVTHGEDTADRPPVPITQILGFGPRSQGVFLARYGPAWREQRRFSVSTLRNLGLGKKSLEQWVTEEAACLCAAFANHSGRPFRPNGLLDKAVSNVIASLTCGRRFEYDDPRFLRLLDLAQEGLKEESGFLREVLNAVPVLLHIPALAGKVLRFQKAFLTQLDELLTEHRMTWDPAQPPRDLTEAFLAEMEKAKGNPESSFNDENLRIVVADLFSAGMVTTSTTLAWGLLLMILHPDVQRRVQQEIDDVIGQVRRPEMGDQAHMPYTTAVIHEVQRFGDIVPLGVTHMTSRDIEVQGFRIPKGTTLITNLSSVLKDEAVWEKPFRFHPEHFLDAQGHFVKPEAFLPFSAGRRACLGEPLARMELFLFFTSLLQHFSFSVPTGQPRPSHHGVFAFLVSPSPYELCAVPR
Cytochrome P450 2C9, sequence (P11712 whole entry): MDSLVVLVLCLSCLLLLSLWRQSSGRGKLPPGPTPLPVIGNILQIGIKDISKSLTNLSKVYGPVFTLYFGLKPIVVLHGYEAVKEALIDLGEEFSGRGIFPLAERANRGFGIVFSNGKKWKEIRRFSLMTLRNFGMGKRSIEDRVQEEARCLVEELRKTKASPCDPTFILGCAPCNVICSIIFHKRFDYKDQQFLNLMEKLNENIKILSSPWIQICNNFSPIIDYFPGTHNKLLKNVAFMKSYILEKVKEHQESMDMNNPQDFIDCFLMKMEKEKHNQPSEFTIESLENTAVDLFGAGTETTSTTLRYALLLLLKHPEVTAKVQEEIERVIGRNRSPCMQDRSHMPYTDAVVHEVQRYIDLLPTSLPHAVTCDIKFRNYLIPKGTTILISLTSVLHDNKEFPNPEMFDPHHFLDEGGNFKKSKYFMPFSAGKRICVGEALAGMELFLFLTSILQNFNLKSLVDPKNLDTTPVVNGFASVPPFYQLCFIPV
Cytochrome P450 2C19, sequence (P33261 whole entry): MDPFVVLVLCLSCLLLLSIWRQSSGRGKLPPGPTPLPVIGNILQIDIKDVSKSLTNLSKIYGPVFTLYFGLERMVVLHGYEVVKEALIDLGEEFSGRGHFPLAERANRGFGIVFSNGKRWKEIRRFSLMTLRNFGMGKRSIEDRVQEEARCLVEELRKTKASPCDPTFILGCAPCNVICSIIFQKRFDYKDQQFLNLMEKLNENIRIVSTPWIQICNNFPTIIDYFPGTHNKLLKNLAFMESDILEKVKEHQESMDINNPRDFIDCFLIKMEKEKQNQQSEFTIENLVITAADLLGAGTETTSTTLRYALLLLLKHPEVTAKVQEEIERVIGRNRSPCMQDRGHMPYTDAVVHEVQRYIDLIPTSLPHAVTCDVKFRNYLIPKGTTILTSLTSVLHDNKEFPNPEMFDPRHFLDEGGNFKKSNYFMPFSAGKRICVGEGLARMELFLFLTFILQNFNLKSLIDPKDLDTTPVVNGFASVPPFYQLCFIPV
Cytochrome P450 3A4, sequence (P08684 whole entry): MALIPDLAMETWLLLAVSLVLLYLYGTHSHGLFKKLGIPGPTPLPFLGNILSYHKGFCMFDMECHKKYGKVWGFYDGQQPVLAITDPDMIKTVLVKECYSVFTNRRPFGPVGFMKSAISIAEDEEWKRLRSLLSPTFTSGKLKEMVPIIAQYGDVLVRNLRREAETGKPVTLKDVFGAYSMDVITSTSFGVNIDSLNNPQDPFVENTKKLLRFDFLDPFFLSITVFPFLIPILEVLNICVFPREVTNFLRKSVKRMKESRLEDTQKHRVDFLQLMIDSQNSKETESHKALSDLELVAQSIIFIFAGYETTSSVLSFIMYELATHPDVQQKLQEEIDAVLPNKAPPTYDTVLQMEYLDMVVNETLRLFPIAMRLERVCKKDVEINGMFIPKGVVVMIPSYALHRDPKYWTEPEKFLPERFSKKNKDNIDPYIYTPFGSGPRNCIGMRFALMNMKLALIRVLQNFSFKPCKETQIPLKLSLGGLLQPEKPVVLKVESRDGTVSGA

In the case of `FC(F)(F)c1ccc(Nc2nc(-c3ccccn3)cs2)cc1`, the INH in data set [1], in data set [3], in data set [4], in data set [5] and in data set [6] was below 0.1 µM throughout. Besides, the clearance in data set [2] is 27 mL/min/kg.
Broadly, the Ki is the dissociation constant of the complex between target and ligand, obtained from inhibition or displacement. Regarding `Cc1ncccc1N1C[C@]2(CC[C@@H](CNc3cnn(-c4ccccc4F)c3)CC2)OC1=O`, the INH in data set [1], in data set [3], in data set [4] and in data set [5] was above 10 µM in each case. Further, in data set [7], affinity was put at a Ki of 631 pM.
As usually defined, the fraction unbound is the share of the substance not bound to proteins or other matrix. As to `O=C1O[C@]2(CC[C@H](CNc3cnn(-c4ccccc4F)c3)CC2)CN1c1cccnc1`, the INH in data set [1] was 7 µM; in data set [3], above 10 µM; in data set [4], above 10 µM; in data set [5] it was 1 µM; in data set [6], 8 µM. In addition, the Ki in data set [7] was 100 pM. Also, in data set [8], the fraction unbound turned out to be 0.025.
`O=C1O[C@]2(CC[C@H](CNc3ccc(-c4nccs4)cn3)CC2)CN1c1ccccn1`: the INH in data set [1] is 0.3 µM; in data set [3], above 10 µM; in data set [4] it was 1 µM; in data set [5] it was 7 µM; in data set [6] it was 3 µM. Also, in data set [7], the Ki is 126 pM.
In the case of `O=C1O[C@]2(CC[C@H](CNc3ccc(-c4ncccn4)cn3)CC2)CN1c1ccccn1`, the INH in data set [1] is 5 µM; in data set [3], above 10 µM; in data set [4] it was above 10 µM; in data set [5], above 10 µM; in data set [6] it was 10 µM. The compound also had a Ki in data set [7] of 158 pM. In addition, the fraction unbound in data set [8] stood at 0.035.
As for `O=C1O[C@]2(CC[C@H](CNc3ccc(OC4CCC4)cn3)CC2)CN1c1ccccn1`, the INH in data set [1] is 2 µM; in data set [3], above 10 µM; in data set [4] it was 2 µM; in data set [5], 3 µM; in data set [6], 7 µM. Further, the Ki in data set [7] is 158 pM.
For the compound `O=C1O[C@]2(CC[C@H](CNc3ccc(C(F)(F)F)cn3)CC2)CN1c1ccccn1`, the INH is 2 µM in data set [1]; above 10 µM in data set [3]; above 10 µM in data set [4]; above 10 µM in data set [5]; 5 µM in data set [6]. Besides, the affinity in data set [7], expressed as Ki, was 1000 pM. The fraction unbound in data set [8] stood at 0.005.
Regarding `O=C1O[C@]2(CC[C@H](CNc3ccc(-c4ccccc4F)nc3)CC2)CN1c1ccccn1`, the INH is 1 µM in data set [1], 2 µM in data set [4], 9 µM in data set [5] and 9 µM in data set [6]. Also, the affinity in data set [7] corresponds to a Ki of 5010 pM.
Turning to `O=C1O[C@]2(CC[C@H](CNc3ccc(-c4ccccc4F)nn3)CC2)CN1c1ccccn1`, the INH in data set [1] is 1 µM; in data set [3], 5 µM; in data set [4] it was 2 µM; in data set [5], above 10 µM; in data set [6], 2 µM. The Ki in data set [7] was 63.1 pM. For the same compound, the fraction unbound in data set [8] worked out at 0.016.
Take `O=C1O[C@]2(CC[C@H](CNc3cnc(-c4ccccc4F)cn3)CC2)CN1c1ccccn1`: the INH in data set [1] was 0.3 µM; in data set [3], above 10 µM; in data set [4] it was above 10 µM; in data set [5], above 10 µM; in data set [6] it was 2 µM. This compound also showed a Ki in data set [7] of 25.1 pM. Besides, the fraction unbound in data set [8] amounted to 0.002.
Turning to `O=C1O[C@]2(CC[C@H](CNc3ccn(-c4ccccc4F)n3)CC2)CN1c1ccccn1`, the INH in data set [1] is 2 µM; in data set [3], above 10 µM; in data set [4], above 10 µM; in data set [5], above 10 µM; in data set [6], 4 µM. The Ki in data set [7] is 31.6 pM.
With `O=C1O[C@]2(CC[C@H](CNc3ncc(-c4ccccc4F)cn3)CC2)CN1c1ccccn1`, the INH was 1 µM in data set [1]; 6 µM in data set [3]; above 10 µM in data set [4]; 5 µM in data set [5]; 4 µM in data set [6]. This compound gave a Ki in data set [7] of 316 pM. Besides, the fraction unbound in data set [8] is below 0.01.
For the compound `O=C1O[C@]2(CC[C@H](CNc3cnn(-c4ccccc4F)c3)CC2)CN1c1cncnc1`, the INH in data set [1] is above 10 µM; in data set [3], above 10 µM; in data set [4], above 10 µM; in data set [5] it was 2 µM; in data set [6], 6 µM. The Ki in data set [7] is 39.8 pM. In data set [8], the fraction unbound was 0.044.
As for `O=C1O[C@]2(CC[C@H](CNc3cnn(-c4ccccc4F)c3)CC2)CN1c1cccnc1F`, the INH in data set [1] was 6 µM; in data set [3], above 10 µM; in data set [4], above 10 µM; in data set [5], 5 µM; in data set [6], 8 µM. The same compound showed a Ki in data set [7] of 100 pM. The fraction unbound in data set [8] amounted to 0.019.
Regarding `O=C1O[C@]2(CC[C@H](CNc3cnn(-c4ccccc4F)c3)CC2)CN1c1cnccn1`, the INH was 3 µM in data set [1]; above 10 µM in data set [3]; 2 µM in data set [4]; 0.6 µM in data set [5]; 2 µM in data set [6]. In addition, in data set [7], the affinity corresponds to a Ki of 63.1 pM. Further, the fraction unbound in data set [8] was determined as 0.017.
In the case of `O=C1O[C@]2(CC[C@H](CNc3cnn(-c4ccccc4F)c3)CC2)CN1c1ccnnc1`, the INH in data set [1] was above 10 µM; in data set [3], above 10 µM; in data set [4] it was above 10 µM; in data set [5] it was 6 µM; in data set [6], above 10 µM. Moreover, the Ki in data set [7] is 200 pM. For the same compound, in data set [8], the fraction unbound amounted to 0.044.
As for `Cc1nnc(N2C[C@]3(CC[C@@H](CNc4cnn(-c5ccccc5F)c4)CC3)OC2=O)s1`, the INH in data set [1] was above 10 µM; in data set [3], above 10 µM; in data set [4], above 10 µM; in data set [5], 6 µM; in data set [6], above 10 µM. The compound further gave a Ki in data set [7] of 200 pM. In data set [8], the fraction unbound turned out to be 0.026.
For `O=C1O[C@]2(CC[C@H](CNc3ccc(-c4ncccn4)cn3)CC2)CN1c1cccnn1`, the INH in data set [1], in data set [3], in data set [4] and in data set [6] was above 10 µM each time. This compound had a Ki in data set [7] of 1580 pM.
In the case of `Cc1ccccc1-c1ccc(NC[C@H]2CC[C@]3(CC2)CN(c2cccnn2)C(=O)O3)nn1`, the INH in data set [1], in data set [3], in data set [4], in data set [5] and in data set [6] was above 10 µM in each case. For the same compound, the Ki in data set [7] was 63.1 pM. The fraction unbound in data set [8] is 0.051.
On to `Cc1cccc(-c2ccc(NC[C@H]3CC[C@]4(CC3)CN(c3cccnn3)C(=O)O4)nc2)n1`, for which the INH in data set [1], in data set [3], in data set [4], in data set [5] and in data set [6] was above 10 µM each time. In data set [7], this compound gave an inhibition constant (Ki) of 251 pM. Also, in data set [8], the fraction unbound was 0.056.
